Experimental data reported in patent US12226409B2, “Treatment of hepatocellular carcinoma” (Eisai R&D Management Co., Ltd., priority 2017, dated 2025).

Tested on: patients with unresectable HCC
Assay: Open-label phase 3 study, safety and side-effect profile (CTCAE v4.0)
[1] = Any grade, listed as lenvatinib

Source text: Randomization was stratified according to region (Asia-Pacific or Western regions), macroscopic portal vein invasion and/or extrahepatic spread (yes or no), Eastern Cooperative Oncology Group performance status (0 or 1), and body weight (<60 kg or ≥60 kg).
Safety assessments included recording of vital signs, hematologic and biochemical laboratory testing, urinalysis, and electrocardiography.

SMILES: COc1cc2nccc(Oc3ccc(NC(=O)NC4CC4)c(Cl)c3)c2cc1C(N)=O [Lenvatinib, 4-(3-chloro-4(cyclopropylaminocarbonyl)aminophenoxy)-7-methoxy-6-quinolinecarboxamide]
- TEAE: Alopecia (12 mg starting dose): 9 (2.8) n (%)
- TEAE: Ascites (12 mg starting dose): 47 (14.5) n (%)
- TEAE: Aspartate aminotransferase increased (12 mg starting dose): 44 (13.5) n (%)
- TEAE: Asthenia (12 mg starting dose): 40 (12.3) n (%)
- TEAE: Back pain (12 mg starting dose): 39 (12.0) n (%)
- TEAE: Blood bilirubin increased (12 mg starting dose): 48 (14.8) n (%)
- TEAE: Constipation (12 mg starting dose): 57 (17.5) n (%)
- TEAE: Decreased appetite (12 mg starting dose): 112 (34.5) n (%)
- TEAE: Diarrhea (12 mg starting dose): 131 (40.3) n (%)
- TEAE: Dysphonia (12 mg starting dose): 85 (26.2) n (%)
- TEAE: Edema peripheral (12 mg starting dose): 43 (13.2) n (%)
- TEAE: Fatigue (12 mg starting dose): 99 (30.5) n (%)
- TEAE: Hypertension (12 mg starting dose): 136 (41.8) n (%)
- TEAE: Hypothyroidism (12 mg starting dose): 53 (16.3) n (%)
- TEAE: Nausea (12 mg starting dose): 69 (21.2) n (%)
- TEAE: Palmar-plantar erythrodysesthesia syndrome (12 mg starting dose): 93 (28.6) n (%)
- TEAE: Platelet count decreased (12 mg starting dose): 61 (18.8) n (%)
- TEAE: Proteinuria (12 mg starting dose): 80 (24.6) n (%)
- TEAE: Pyrexia (12 mg starting dose): 45 (13.8) n (%)
- TEAE: Rash (12 mg starting dose): 28 (8.6) n (%)
- TEAE: Stomatitis (12 mg starting dose): 34 (10.5) n (%)
- TEAE: Vomiting (12 mg starting dose): 55 (16.9) n (%)
- TEAE: Weight decreased (12 mg starting dose): 104 (32.0) n (%)
- TEAE: Dysphonia (Any grade): (23.7) %
- TEAE: Proteinuria (Any grade): (24.6) %
- TEAE: decreased weight (Any grade): (30.9) %
- TEAE: Dysphonia [1]: 23.7%
- TEAE: Hypertension [1]: 42.2%
- TEAE: Hypothyroidism [1]: 16.4%
- TEAE: Proteinuria [1]: 24.6%
- Primary reason for discontinuation of treatment: Adverse event (Full Analysis Set): 63 (13.2) n (%)
- most common adverse reactions, in order of decreasing frequency (HCC subjects): hypertension, fatigue, diarrhea, decreased appetite, arthralgia/myalgia, and decreased weight
- adverse event rate adjusted by patient-years (TEAEs of grade 3 or higher): 3.2
- adverse event rate adjusted by patient-years (all TEAEs): 18.9
- Dose modification: AST increased (in vivo): 1.9%
- Dose modification: ascites (in vivo): 2.1%
- Dose modification: hepatic encephalopathy (in vivo): 4.2%
- Dose modification: neutrophil count decreased (in vivo): 2.3%
- Dose modification: pyrexia (in vivo): 2.5%
- Dose modification: vomiting (in vivo): 2.5%
- Dose modification: weight decreased (in vivo): 4.2%
- Dose reduction/interruption: Gastrointestinal disorders (in vivo): 18.3%
- Dose reduction/interruption: General disorders and administration site conditions (in vivo): 14.1%
- Dose reduction/interruption: Investigations (in vivo): 17.0%
- Dose reduction/interruption: Metabolism and nutrition disorders (in vivo): 10.9%
- Dose reduction/interruption: PPE syndrome (in vivo): 5.3%
- Dose reduction/interruption: decreased appetite (in vivo): 7.6%
- Dose reduction/interruption: diarrhea (in vivo): 7.6%
- Dose reduction/interruption: fatigue (in vivo): 5.7%
- Dose reduction/interruption: hypertension (in vivo): 6.1%
- Dose reduction/interruption: proteinuria (in vivo): 6.9%
- Treatment-emergent adverse events of grade 3 or higher, patients (in vivo): 75.0%
- Treatment-emergent adverse events, patients (in vivo): 98.7%
- WBC count deceased, adjusted by treatment duration (in vivo): 0.25 episodes per SY
- dysphonia, adjusted by treatment duration (in vivo): 0.4 episodes per SY
- hepatic encephalopathy, adjusted by treatment duration (in vivo): 0.17 episodes per SY
- hypothyroidism, adjusted by treatment duration (in vivo): 0.24 episodes per SY
- neutrophil count decreased, adjusted by treatment duration (in vivo): 0.21 episodes per SY
- proteinuria, adjusted by treatment duration (in vivo): 0.5 episodes per SY
- subjects without a TEAE (in vivo): 6 subjects
- AEs leading to dose reduction or interruption, subjects (unadjusted for treatment duration): 61.8%
- Dose reduction/interruption: Abdominal pain (whole arm): 6 (1.3) n (%)
- Dose reduction/interruption: Abdominal pain upper (whole arm): 5 (1.1) n (%)
- Dose reduction/interruption: Alanine aminotransferase increased (whole arm): 6 (1.3) n (%)
- Dose reduction/interruption: Anemia (whole arm): 3 (0.6) n (%)
- Dose reduction/interruption: Ascites (whole arm): 10 (2.1) n (%)
- Dose reduction/interruption: Aspartate aminotransferase increased (whole arm): 9 (1.9) n (%)
- Dose reduction/interruption: Asthenia (whole arm): 16 (3.4) n (%)
